Biological target: T1, myocardial ATP-sensitive potassium channel (SUR2A/Kir6.2) (UniProt Q61743+Q63563)
T1 construct: expressed in transfected cells
Test: Rubidium efflux test on HEK293 cells transfected with SUR2A and Kir6.2 (myocardial action)
Format: cell-based, SUR2A from the rat, Kir6.2 from the mouse
Conditions: HEK293 cells transfected with SUR2A/Kir6.2; KATP channels opened by rilmakalim; 25 min incubation; read-out: IC50 values for the inhibition of the rubidium efflux
Protocol: 1) Action on the SUR2A/Kir6.2 potassium channel (myocardial action) The action of the compounds on the ion transport through the myocardial ATP-sensitive potassium channel (SUR2A/Kir6.2) was determined in the rubidium efflux test system described below on human embryonic kidney cells HEK293 which were transfected with the components SUR2A and Kir6.2 (cf. Weyermann et al., Naunyn-Schmiedeberg's Arch. Pharmacol. 369, 374-381 (2004)).
The HEK293 cells were cultured at 37° C. in a humidified air atmosphere with 7% carbon dioxide in minimal essential medium with Earle's salts and L-glutamine (MEM, Gibco), which was supplemented with 10% fetal calf serum and zeozin (0.36 mg/ml) and geneticin (0.75 mg/ml). The transfection of the cells and the preparation of a cell line with stable expression of Kir6.2 from the mouse (accession number AF037313) and SUR2A from the rat (accession number D83598/L40624) were carried out as described in Giblin et al., J. Biol. Chem. 274, 22652-22659 (1999).
60 000 transfected cells per well were inoculated into a poly-D-lysine-coated 96-well microtiter plate (Greiner #650 201). After incubation for 24 h at 37° C., the cells were washed three times with buffer 1 (150 mM NaCl, 2 mM CaCl2, 0.8 mM NaH2PO4, 1 mM MgCl2, 5 mM glucose, 25 mM HEPES, pH=7.4). Subsequently, the buffer solution was replaced by 100 μl of rubidium loading buffer (buffer 1 with 5.4 mM RbCl) and the cells were incubated for a further 3 h at 37° C. The rubidium loading buffer was then removed by washing the cells three times with 200 μl each of potassium chloride wash buffer (buffer 1 with 5.4 mM KCl). After addition of the test substances (70 μl; dissolved in potassium chloride wash buffer with addition of DMSO), the KATP channels of the cells were opened by addition of 70 μl of rilmakalim (2 μM) (cf. Krause et al., Pflügers Arch. 429, 625-635 (1995)) and the cells were incubated at 37° C. for 25 min. Subsequently, the cell supernatants were transferred to a new 96-well microtiter plate and the cells were lyzed by addition of 200 μl of lysis buffer (buffer 1 with 1% Triton X-100). The concentrations of Rb^+ in the cell supernatant and in the cell lyzate were measured by means of atomic absorption spectroscopy using an Al 1200 apparatus (Aurora Instruments Ltd.).
The Rb^+ efflux rate was calculated as [Rb^+SN]/[Rb^+total], wherein [Rb^+SN] is the amount of Rb^+ in the cell supernatant and [Rb^+total] is the sum of the amounts of Rb^+ in the cell supernatant and cell lyzate. IC50 values for the inhibition of the rubidium efflux were calculated with the aid of the Hill equation.

T1 sequence (Q63563 whole entry): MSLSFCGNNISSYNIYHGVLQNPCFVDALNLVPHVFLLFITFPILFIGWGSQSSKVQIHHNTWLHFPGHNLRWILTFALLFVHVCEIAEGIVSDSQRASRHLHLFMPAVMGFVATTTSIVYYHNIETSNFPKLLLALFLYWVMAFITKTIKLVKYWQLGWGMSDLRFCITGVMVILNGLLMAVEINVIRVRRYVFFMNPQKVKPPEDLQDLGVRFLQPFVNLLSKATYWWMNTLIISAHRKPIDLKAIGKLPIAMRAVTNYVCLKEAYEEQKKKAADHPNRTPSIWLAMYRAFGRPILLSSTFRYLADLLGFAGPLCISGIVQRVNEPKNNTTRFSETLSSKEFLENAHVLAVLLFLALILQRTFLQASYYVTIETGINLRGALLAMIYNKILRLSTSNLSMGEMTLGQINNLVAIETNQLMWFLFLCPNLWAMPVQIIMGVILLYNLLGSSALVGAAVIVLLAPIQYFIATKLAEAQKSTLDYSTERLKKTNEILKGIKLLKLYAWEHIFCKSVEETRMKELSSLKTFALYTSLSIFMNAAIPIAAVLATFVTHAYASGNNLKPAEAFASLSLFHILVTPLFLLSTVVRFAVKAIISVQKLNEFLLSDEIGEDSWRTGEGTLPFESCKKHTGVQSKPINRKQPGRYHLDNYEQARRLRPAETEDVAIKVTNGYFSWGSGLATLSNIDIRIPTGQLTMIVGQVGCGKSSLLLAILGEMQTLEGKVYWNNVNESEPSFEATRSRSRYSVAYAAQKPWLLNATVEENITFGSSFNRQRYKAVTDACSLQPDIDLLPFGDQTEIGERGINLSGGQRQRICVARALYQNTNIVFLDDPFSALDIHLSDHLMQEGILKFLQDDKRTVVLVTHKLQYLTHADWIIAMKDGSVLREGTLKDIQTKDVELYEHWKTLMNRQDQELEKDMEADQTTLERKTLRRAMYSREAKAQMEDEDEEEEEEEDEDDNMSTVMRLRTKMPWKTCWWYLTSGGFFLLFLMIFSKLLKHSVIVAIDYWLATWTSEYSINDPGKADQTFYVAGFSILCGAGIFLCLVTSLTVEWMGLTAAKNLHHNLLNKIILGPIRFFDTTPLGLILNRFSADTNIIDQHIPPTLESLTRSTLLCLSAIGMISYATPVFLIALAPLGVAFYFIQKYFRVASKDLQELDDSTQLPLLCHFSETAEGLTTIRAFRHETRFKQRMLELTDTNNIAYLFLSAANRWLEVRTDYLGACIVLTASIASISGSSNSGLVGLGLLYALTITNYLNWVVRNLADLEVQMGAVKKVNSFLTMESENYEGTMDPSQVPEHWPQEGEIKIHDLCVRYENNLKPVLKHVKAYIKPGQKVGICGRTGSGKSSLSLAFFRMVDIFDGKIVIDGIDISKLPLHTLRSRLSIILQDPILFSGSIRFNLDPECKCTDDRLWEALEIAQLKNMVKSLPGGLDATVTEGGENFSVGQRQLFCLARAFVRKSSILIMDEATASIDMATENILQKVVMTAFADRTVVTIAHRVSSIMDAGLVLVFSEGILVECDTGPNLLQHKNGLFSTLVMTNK
T1 sequence (Q61743 whole entry): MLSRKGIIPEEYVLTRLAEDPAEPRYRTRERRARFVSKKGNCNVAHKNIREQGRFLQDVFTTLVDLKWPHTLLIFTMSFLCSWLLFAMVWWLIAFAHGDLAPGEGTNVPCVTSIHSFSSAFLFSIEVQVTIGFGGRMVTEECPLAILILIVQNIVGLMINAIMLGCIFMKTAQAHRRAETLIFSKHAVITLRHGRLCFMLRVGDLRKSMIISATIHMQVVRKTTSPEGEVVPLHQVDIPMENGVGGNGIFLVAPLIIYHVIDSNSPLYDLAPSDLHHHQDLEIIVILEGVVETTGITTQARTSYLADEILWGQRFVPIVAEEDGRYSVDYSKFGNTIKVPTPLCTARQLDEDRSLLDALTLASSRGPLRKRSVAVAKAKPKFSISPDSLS

IC50, < 1000 nM:
COC1(c2ccc(F)cc2)CCC(C(=O)O)(c2ccccc2)CC1 (stereo not shown) [Example 92, 4-(4-Fluorophenyl)-4-methoxy-1-phenylcyclohexanecarboxylic Acid]
O=C(O)[C@]1(c2ccccc2)CC[C@](OCC2CC2)(c2nc(C(F)(F)F)cn2CC2CC2)CC1 [Example 381]
CS(=O)(=O)c1cccc2nc([C@]3(OCC4CC4)CC[C@](C(=O)O)(c4ccccc4)CC3)n(CC3CC3)c12 [Example 455]
O=C(O)C1(c2ccccc2)CCC(O)(c2ccc(C(F)(F)F)cc2F)CC1 (stereo not shown) [Example 103]
CC(C)(C)c1nc([C@]2(OCC3CC3)CC[C@](C(=O)O)(c3ccccc3)CC2)n(CC2CC2)c1Cl [Example 393]
CS(=O)(=O)c1ccccc1C1(OCC2CC2)CCC(C(=O)O)(c2ccc(F)cc2)CC1 (stereo not shown) [Example 254]
COC1(c2ccc(F)cc2)CCC(C(=O)O)(c2cccc(OC(F)(F)F)c2)CC1 (stereo not shown) [Example 237]
COC1(c2cccc(C(F)(F)F)c2)CCC(C(=O)O)(c2ccccc2)CC1 (stereo not shown) [Example 125]
Cc1c(F)cc([C@]2(OCC3CC3)CC[C@](C(=O)O)(c3ccc(F)cc3)CC2)cc1S(=O)(=O)C(C)C [Example 304-4, Cis-4-Cyclopropylmethoxy-4-[3-fluoro-4-methyl-5-(propane-2-sulfonyl)phenyl]-1-(4-fluorophenyl)cyclohexanecarboxylic Acid]
O=C(O)[C@]1(c2ccccc2)CC[C@](OCC2CC2)(c2nc(-c3ccccc3)n(CC3CC3)n2)CC1 [Example 270, Trans-4-Cyclopropylmethoxy-4-(1-cyclopropylmethyl-5-phenyl-1H-[1,2,4]triazol-3-yl)-1-phenylcyclohexanecarboxylic Acid]
O=C(O)C1(c2ccccc2)CCC(O)(c2cccc(C(F)(F)F)c2)CC1 (stereo not shown) [Example 102]
O=C(O)[C@]1(c2ccccc2)CC[C@@](OCC2(c3ccccc3)COC2)(c2nccn2CC2CC2)CC1 [Example 497, 4-(1-Cyclopropylmethyl-1H-imidazol-2-yl)-1-phenyl-4-(3-phenyloxetan-3-ylmethoxy)cyclohexanecarboxylic Acid]
O=C(O)[C@]1(c2ccccc2)CC[C@@](OCC2CC2)(c2nc3cccnc3n2CC2CC2)CC1 [Example 448]
Cc1ccc([C@]2(C(=O)O)CC[C@](OCC3CC3)(c3nc4ccccc4n3CC3CC3)CC2)cc1 [Example 412]
Cc1nc([C@]2(OCC3CC3)CC[C@](C(=O)O)(c3ccc(S(C)(=O)=O)cc3)CC2)n(CC2CC2)c1Cl [Example 408]
O=C(O)[C@]1(c2ccccc2)CC[C@@](OCC2CC2)(c2nc(Cl)c(Cl)n2CC2CC2)CC1 [Example 387]
O=C(O)C1(c2ccccc2)CCC(OCC2CC2)(c2ccc(F)cc2)CC1 (stereo not shown) [Example 150]
O=C(O)[C@]1(c2ccccc2)CC[C@@](OCC2CC2)(c2nc(-c3ccccc3)cs2)CC1 [Example 333-1, Cis-4-Cyclopropylmethoxy-1-phenyl-4-(4-phenylthiazol-2-yl)cyclohexanecarboxylic Acid]
O=C(O)[C@]1(c2ccccc2)CC[C@](OCC2CC2)(c2nc3cc(F)ccc3n2CC2CC2)CC1 [Example 453]
O=C(O)[C@]1(c2ccccc2)CC[C@](Oc2ccccc2)(c2nc(-c3ccccc3)nn2CC2CC2)CC1 [Example 466]
COC1(c2ccc(F)cc2)CCC(C(=O)O)(c2ccc(C)cc2)CC1 (stereo not shown) [Example 239]
COC1(c2cccc(F)c2F)CCC(C(=O)O)(c2ccccc2)CC1 (stereo not shown) [Example 120]

From patent US8076324B2, “Di(hetero)arylcyclohexane derivatives, their preparation, their use and pharmaceutical compositions comprising them” (Sanofi-Aventis, priority 2007, dated 2011)
